Reference: ChEMBL document CHEMBL1201862, “PubChem BioAssay data set” (2004)
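48-hour exposure; five concentrations; linearly interpolated endpoints. The concentration for 50% growth inhibition is given as GI50.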 Calls of active or inactive are those of the source. No stated cut-off is given here; in the data, active = GI50 up to about 1.1 µM and inactive = higher.

Experiments:
Test in all cases: DTP human tumour cell line panel, 48 h
[1] = test system: SN12C
[2] = test system: LXFL 529
[3] = test system: HOP-18
[4] = test system: HOP-62
[5] = test system: OVCAR-4
[6] = test system: OVCAR-5
[7] = test system: HOP-92
[8] = test system: KM-20L2
[9] = test system: HCC 2998
[10] = test system: CAKI-1
[11] = test system: SW-620
[12] = test system: OVCAR-8
[13] = test system: COLO 205
[14] = test system: HL-60
[15] = test system: NCI-H460
[16] = test system: SK-MEL-2
[17] = test system: SNB-19
[18] = test system: LOX IMVI
[19] = test system: UACC-257
[20] = test system: NCI-H226
[21] = test system: OVCAR-3
[22] = test system: M14
[23] = test system: KM12
[24] = test system: HT-29
[25] = test system: Malme-3M
[26] = test system: UO-31
[27] = test system: DMS-114
[28] = test system: HCT-15
[29] = test system: M19-MEL
[30] = test system: SR
[31] = test system: SF-295
[32] = test system: DMS-273
[33] = test system: HCT-116
[34] = test system: SK-MEL-5
[35] = test system: NCI-H23
[36] = test system: MOLT-4
[37] = test system: RXF 393
[38] = test system: UACC-62
[39] = test system: U-251
[40] = test system: CCRF-CEM
[41] = test system: IGROV-1
[42] = test system: 786-0
[43] = test system: K562
[44] = test system: ACHN
[45] = test system: A498
[46] = test system: SF-268
[47] = test system: SK-OV-3
[48] = test system: RPMI-8226
[49] = test system: DLD-1
[50] = test system: NCI-H522
[51] = test system: SNB-75
[52] = test system: SF-539
[53] = test system: TK-10
[54] = test system: A549

## COc1ccc(C(=O)C(C(=O)CCC(=O)Nc2ccc(C)c(C)c2)c2ccc(OC)cc2)cc1 (stereo not drawn)
[1]
  GI50: > 100 µM (inactive)
[2]
  GI50: > 100 µM (inactive)
[3]
  GI50: > 100 µM (inactive)
[4]
  GI50: > 100 µM (inactive)
[5]
  GI50: > 100 µM (inactive)
[6]
  GI50: > 100 µM (inactive)
[7]
  GI50: 48.9 µM (inactive)
[8]
  GI50: > 100 µM (inactive)
[9]
  GI50: > 100 µM (inactive)
[10]
  GI50: > 100 µM (inactive)
[11]
  GI50: > 100 µM (inactive)
[12]
  GI50: > 100 µM (inactive)
[13]
  GI50: > 100 µM (inactive)
[14]
  GI50: > 100 µM (inactive)
[15]
  GI50: > 100 µM (inactive)
[16]
  GI50: > 100 µM (inactive)
[17]
  GI50: > 10 µM (inactive)
[18]
  GI50: > 100 µM (inactive)
[19]
  GI50: > 100 µM (inactive)
[20]
  GI50: > 100 µM (inactive)
[21]
  GI50: > 100 µM (inactive)
[22]
  GI50: > 100 µM (inactive)
[23]
  GI50: > 100 µM (inactive)
[24]
  GI50: > 100 µM (inactive)
[25]
  GI50: > 100 µM (inactive)
[26]
  GI50: > 100 µM (inactive)
[27]
  GI50: > 100 µM (inactive)
[28]
  GI50: > 100 µM
[29]
  GI50: > 100 µM (inactive)
[30]
  GI50: > 100 µM (inactive)
[31]
  GI50: > 100 µM (inactive)
[32]
  GI50: > 100 µM (inactive)
[33]
  GI50: > 100 µM (inactive)

## COc1ccc(C2S/C(=C\c3cccc(O)c3)C(=O)N2NC(=O)Cc2ccccc2)cc1 (stereo not drawn)
[1]
  GI50: > 100 µM (inactive)
[2]
  GI50: > 100 µM (inactive)
[3]
  GI50: > 100 µM (inactive)
[4]
  GI50: > 100 µM (inactive)
[34]
  GI50: > 100 µM (inactive)
[5]
  GI50: > 100 µM (inactive)
[6]
  GI50: > 100 µM (inactive)
[7]
  GI50: > 100 µM (inactive)
[35]
  GI50: > 100 µM (inactive)
[36]
  GI50: > 100 µM (inactive)
[37]
  GI50: 12 µM (inactive)
[38]
  GI50: > 100 µM (inactive)
[39]
  GI50: > 100 µM (inactive)
[10]
  GI50: > 100 µM (inactive)
[11]
  GI50: > 100 µM (inactive)
[12]
  GI50: > 100 µM (inactive)
[13]
  GI50: > 100 µM (inactive)
[40]
  GI50: > 100 µM (inactive)
[41]
  GI50: > 100 µM (inactive)
[14]
  GI50: > 100 µM (inactive)
[15]
  GI50: > 100 µM (inactive)
[16]
  GI50: > 100 µM (inactive)
[18]
  GI50: > 100 µM (inactive)
[19]
  GI50: > 100 µM (inactive)
[42]
  GI50: > 100 µM (inactive)
[20]
  GI50: > 100 µM (inactive)
[43]
  GI50: > 100 µM (inactive)
[44]
  GI50: > 100 µM (inactive)
[22]
  GI50: > 100 µM (inactive)
[23]
  GI50: > 100 µM (inactive)
[24]
  GI50: > 100 µM (inactive)
[45]
  GI50: > 100 µM (inactive)
[25]
  GI50: > 100 µM (inactive)
[26]
  GI50: > 100 µM (inactive)
[46]
  GI50: > 100 µM (inactive)
[47]
  GI50: > 100 µM (inactive)
[27]
  GI50: > 100 µM (inactive)
[48]
  GI50: > 100 µM (inactive)
[49]
  GI50: > 100 µM (inactive)
[28]
  GI50: > 100 µM
[50]
  GI50: > 100 µM (inactive)
[51]
  GI50: > 100 µM (inactive)
[29]
  GI50: > 100 µM (inactive)
[30]
  GI50: > 100 µM (inactive)
[52]
  GI50: > 100 µM (inactive)
[31]
  GI50: > 100 µM (inactive)
[32]
  GI50: > 100 µM (inactive)
[53]
  GI50: > 100 µM (inactive)
[33]
  GI50: > 100 µM (inactive)
[54]
  GI50: > 100 µM (inactive)
